Reference: US5235036A, “CRF analogs” (The Salk Institute for Biological Studies, priority 1991, dated 1993)
Entries after “also recorded” stand apart in the source; their conditions may differ. Read-outs that look alike come from different tables or passages of the source. Where a SMILES comes first, the peptide text is derived from it. Where no end group is shown, it is not given here. [ ]: non-standard residue; d: D form.

Key:
[1] = test system: secretion of ACTH and β-END-LI; test: in vivo testing: stimulation of the secretion of ACTH and β-END-LI; conditions: test system not stated in the example
Protocol: (§1) The synthetic peptides [Ala^20 ]-oCRF and [Ala^39 ]-oCRF are examined for their effects on the secretion of ACTH and β-endorphin in vitro and also in vivo. The potency of synthetic oCRF analogs to stimulate the secretion of ACTH and β-endorphin by cultured rat pituitary cells is measured using the procedure as generally set forth in Endocrinology, 91, 562 (1972) and compared against synthetic oCRF. [Ala^20 ]-oCRF is considered to be about 2 to 4 times as potent as the native hormone. […] In vivo testing which can be carried out using the general procedure set forth in C. Rivier et al., Science.

[2] = lowering of blood pressure when injected peripherally; assay type: in vivo; conditions: e.g. intravenously
[3] = background statement; mammals; cited from earlier work
[4] = test system: ACTH and β-endorphin-like activities (β-END-LI); conditions: in vitro and in vivo; background statement; cited from earlier work
[5] = test system: cultured rat pituitary cells; test: secretion of ACTH and β-endorphin by cultured rat pituitary cells, compared against synthetic oCRF; assay type: cell-based
Protocol: as §1

gastric acid production = conditions: background statement; cited from earlier work

CC[C@H](C)[C@H](NC(=O)[C@@H](NC(=O)[C@H](CCC(=O)O)NC(=O)[C@H](CCSC)NC(=O)[C@H](CC(C)C)NC(=O)[C@H](CCCCN)NC(=O)[C@H](CCCNC(=N)N)NC(=O)[C@H](CC(N)=O)NC(=O)[C@H](CO)NC(=O)[C@H](Cc1c[nH]cn1)NC(=O)[C@H](C)NC(=O)[C@H](CCC(N)=O)NC(=O)[C@H](CCC(N)=O)NC(=O)[C@H](C)NC(=O)[C@H](CC(C)C)NC(=O)[C@H](CCC(N)=O)NC(=O)[C@H](CCC(=O)O)NC(=O)[C@H](C)NC(=O)[C@H](CCCNC(=N)N)NC(=O)[C@H](C)NC(=O)[C@H](CCSC)NC(=O)[C@H](C)NC(=O)[C@H](CC(C)C)NC(=O)[C@@H](NC(=O)[C@H](CCC(=O)O)NC(=O)[C@H](CCCNC(=N)N)NC(=O)[C@H](CC(C)C)NC(=O)[C@H](CC(C)C)NC(=O)[C@H](Cc1c[nH]cn1)NC(=O)[C@@H](Cc1ccccc1)NC(=O)[C@@H](NC(=O)[C@H](CC(C)C)NC(=O)[C@H](CC(=O)O)NC(=O)[C@H](CC(C)C)NC(=O)[C@H](CO)NC(=O)[C@@H](NC(=O)[C@@H]1CCCN1C(=O)[C@@H]1CCCN1C(=O)[C@@H](N)CCC(=O)O)[C@@H](C)CC)[C@@H](C)O)C(C)C)[C@@H](C)CC)C(N)=O [[D-Phe^12, Ala^20]-rCRF(3-41)] (H-EPPISLDLT[dF]HLLREVLAMARAEQLAQQAHSNRKLMEII-NH2)
biopotency / stimulation of the secretion of ACTH and β-END-LI [1]: biopotent | lowering of blood pressure [2]: causes significant lowering of blood pressure

SEEPPISLDLTFHLLREVLAMARAEQLAQQAHSNRKLMEII [[Ala^20]-rCRF]
biopotency / stimulation of the secretion of ACTH and β-END-LI [1]: biopotent and stimulates the secretion of ACTH and β-END-LI | lowering of blood pressure [2]: causes significant lowering of blood pressure

SEEPPISLDLTFHLLREVLEMARAEQLAQQAHSNRKLMAII [[Ala^39 -rCRF]
biopotency / stimulation of the secretion of ACTH and β-END-LI [1]: biopotent, stimulates the secretion of ACTH and β-END-LI | lowering of blood pressure [2]: causes significant lowering of blood pressure

SQEPPISLDLTFHLLREMLEMAKAEQEAEQAALNRLLLEEA [AHC]
lowering of blood pressure [3]: substantially lower blood pressure | stimulation of ACTH and β-endorphin secretion / β-END-LI [4]: stimulate ACTH and β-endorphin-like activities (β-END-LI) in vitro and in vivo

SQEPPISLDLTFHLLREVLAMTKADQLAQQAHSNRKLLAIA [[Ala^20,29]-oCRF]
biopotency / stimulation of the secretion of ACTH and β-END-LI [1]: biopotent | lowering of blood pressure [2]: lowers blood pressure

SQEPPISLDLTFHLLREVLAMTKADQLAQQAHSNRKLLDIA [[Ala^20]-oCRF]
lowering of blood pressure [2]: a significant lowering of blood pressure

SQEPPISLDLTFHLLREVLEMTKADQLAQQAHSNRKLLAIA [[Ala^39]-oCRF]
increase in biopotency in vitro over the native hormone [5]: ~85% | lowering of blood pressure [2]: a significant lowering of blood pressure

Ser-Gln-Glu-Pro-Pro-Ile-Ser-Leu-Asp-Leu-Thr-Phe-His-Leu-Leu-Arg-Glu-Val-Leu-Glu-Met-Thr-Lys-Ala-Asp-Gln-Leu-Ala-Gln-Gln-Ala-His-Ser-Asn-Arg Lys-Leu-Leu-Asp-Ile-Ala (SQEPPISLDLTFHLLREVLEMTKADQLAQQAHSNRKLLDIA) [oCRF]
lowering of blood pressure [3]: lowers blood pressure in mammals; also recorded: substantially lower blood pressure | stimulation of ACTH and β-endorphin secretion / β-END-LI [4]: stimulates the secretion of ACTH and β-endorphin; also recorded: stimulate ACTH and β-endorphin-like activities (β-END-LI) in vitro and in vivo | gastric acid production (gastric acid production): inhibits gastric acid production

Ser-Glu-Glu-Pro-Pro-Ile-Ser-Leu-Asp-Leu-Thr-Phe-His-Leu-Leu-Arg-Glu-Val-Leu-Glu-Met-Ala-Arg-Ala-Glu-Gln-Leu-Ala-Gln-Gln-Ala-His-Ser-Asn-Arg -Lys-Leu-Met-Glu-Ile-Ile (SEEPPISLDLTFHLLREVLEMARAEQLAQQAHSNRKLMEII) [rCRF]
lowering of blood pressure [3]: substantially lower blood pressure | stimulation of ACTH and β-endorphin secretion / β-END-LI [4]: stimulate ACTH and β-endorphin-like activities (β-END-LI) in vitro and in vivo
